Results published in patent US9469645B2, “Compounds and compositions for the treatment of parasitic diseases” (Novartis AG, priority 2009, dated 2016).

Assays:
3D7 P. falciparum strain = test: parasite proliferation assay in infected red blood cells (SYBR Green I); type: cell-based, Plasmodium falciparum; conditions: Plasmodium falciparum, 3D7, Erythrocyte, 3D7 strain; read-out: EC50 3D7 strain
Procedure, shortened: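 P. falciparum 3D7 grown in O+ human erythrocytes to 3–8% parasitemia and exposed to compounds. Proliferation read as the increase in parasite DNA. Detection used SYBR Green I in saponin/triton-X/EDTA lysis buffer, with overnight lysis at room temperature.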

W2 strain = test: parasite proliferation assay in infected red blood cells (SYBR Green I), W2 strain; type: cell-based, Plasmodium falciparum; conditions: Plasmodium falciparum, Erythrocyte
From the text: Compounds of the invention can be assayed to measure their capacity to inhibit proliferation of parasitemia in infected red blood cells. The proliferation is quantified by the addition of SYBR Green I (INVITROGEN)® dye which has a high affinity for double stranded DNA.

SMILES | EC50 (3D7 P. falciparum strain) [nM] | EC50 (W2 strain) [nM]
Cc1ccc(Nc2c(-c3ccc(F)cc3)nc3n2CCN(C(=O)[C@@H](N)c2ccc(F)cc2)C3)cc1 [Compound 482] | 20 | 9
Cc1ccc(Nc2c(-c3ccc(F)cc3)nc3n2CCN(C(=O)[C@@H](N)Cc2ccc(F)cc2)C3)cc1 [Compound 483] | 50 | 25
Cc1ccc(C[C@H](N)C(=O)N2CCn3c(nc(-c4ccc(F)cc4)c3Nc3ccc(C)cc3)C2)cc1 [Compound 484] | 40 | 23
Cc1ccc(Nc2c(-c3ccc(F)cc3)nc3n2CCN(C(=O)[C@@H](N)Cc2ccc(F)c(F)c2)C3)cc1 [Compound 485] | 30 | 23
Cc1ccc(Nc2c(-c3ccc(F)cc3)nc3n2CCN(C(=O)[C@@H](N)Cc2cscn2)C3)cc1 [Compound 486] | 30 | 16
N[C@H](C(=O)N1CCn2c(nc(-c3ccc(F)cc3)c2Nc2ccc(Cl)c(F)c2)C1)C1CC1 [Compound 487] | 40 | 31
N[C@@H](CC1CC1)C(=O)N1CCn2c(nc(-c3ccc(F)cc3)c2Nc2ccc(Cl)c(F)c2)C1 [Compound 488] | 20 | 13
CC(C)[C@H](O)C(=O)N1CCn2c(nc(-c3ccc(F)cc3)c2Nc2ccc(Cl)c(F)c2)C1 [Compound 489] | 10 | 9
N[C@H](C(=O)N1CCn2c(nc(-c3ccc(F)cc3)c2Nc2ccc(Cl)c(F)c2)C1)c1ccc(F)cc1 [Compound 490] | 50 | 33
CC1(C)NCCn2c1nc(-c1ccc(F)cc1)c2Nc1ccc(F)cc1 [Compound 493] | 4 | 5
Cc1ccc(Nc2c(-c3ccc(F)c(C)c3)nc3n2CCNC3)cc1 [Compound 494] | 2820 | 2140
Cc1cc(Nc2c(-c3ccc(F)cc3)nc3n2CCN(C(=O)CN)C3(C)C)ccc1F [Compound 495] | 90 | 39
Cc1cc(Nc2c(-c3ccc(F)cc3)nc3n2CCN(C(=O)CN)C3(C)C)ccc1Cl [Compound 496] | 30 | 8
Cc1ccc(Nc2c(-c3ccc(F)c(Cl)c3)nc3n2CCNC3)cc1 [Compound 497] | 8000 | 5820
Cc1ccc(Nc2c(-c3ccc(Cl)c(F)c3)nc3n2CCNC3)cc1 [Compound 498] | 6340 | 6740
Cc1cccc(Nc2c(-c3ccc(F)cc3)nc3n2CCN(C(=O)CN)C3(C)C)c1 [Compound 499] | 10 | 6
CC1(C)NC(=O)Cn2c1nc(-c1ccc(F)cc1)c2Nc1cccc(C(F)(F)F)c1 [Compound 500] | 1560 | 1100
CC1(C)NC(=O)Cn2c1nc(-c1ccc(F)cc1)c2Nc1cccc(F)c1 [Compound 501] | 400 | 305
Cc1ccc(Nc2c(-c3ccc(F)cc3)nc3n2CCN(C(=O)[C@@](C)(N)Cc2ccc(F)cc2)C3)cc1 [Compound 502] | 1390 | 1370
Cc1ccc(Nc2c(-c3ccc(F)cc3)nc3n2CCN(C(=O)C(C)(N)CC(C)C)C3)cc1 (stereo not shown) [Compound 503] | 120 | 95
Cc1ccc(Nc2c(-c3ccc(F)cc3)nc3n2CCN(C(=O)[C@@](C)(N)CO)C3)cc1 [Compound 504] | 90 | 93

SMILES | EC50 (3D7 P. falciparum strain) [nM] | EC50 (W2 strain) [nM]
Cc1ccc(Nc2c(-c3ccc(F)cc3)nc3n2CCN(C(=O)C(C)(N)CO)C3)cc1 (stereo not shown) [Compound 505] | 140 | 116
CC1(C)NC(=O)Cn2c1nc(-c1ccc(F)cc1)c2Nc1ccc(Cl)c(Cl)c1 [Compound 506] | 190 | 198
Cc1ccc(Nc2c(-c3ccc(F)cc3)nc3n2CC(=O)NC3(C)C)cc1 [Compound 507] | 140 | 136
CC1(C)NC(=O)Cn2c1nc(-c1ccc(F)cc1)c2Nc1ccc(Cl)cc1 [Compound 508] | 130 | 126
CC1(C)NC(=O)Cn2c1nc(-c1ccc(F)cc1)c2Nc1ccc(F)c(F)c1 [Compound 509] | 130 | 134
CC1(C)NC(=O)Cn2c1nc(-c1ccc(F)cc1)c2Nc1ccc(Cl)c(F)c1 [Compound 511] | 40 | 65
CC1(C)NC(=O)Cn2c1nc(-c1ccc(F)cc1)c2Nc1ccc(F)cc1 [Compound 512] | 190 | 165
CC1(C)NC(=O)Cn2c1nc(-c1ccc(F)cc1)c2Nc1ccc(F)c(Cl)c1 [Compound 513] | 170 | 195
CC1(C)NCCn2c1nc(-c1ccc(F)cc1)c2Nc1cccc(F)c1 [Compound 514] | 30 | 24
CC1(C)NCCn2c1nc(-c1ccc(F)cc1)c2Nc1cccc(C(F)(F)F)c1 [Compound 515] | 40 | 34
CC1(C)c2nc(-c3ccc(F)cc3)c(Nc3cccc(F)c3)n2CCN1C(=O)C(F)(F)F [Compound 516] | 30 | 26
Cc1ccc(Nc2c(-c3ccc(F)c(C)c3)nc3n2CCN(C(=O)CN)C3)cc1 [Compound 517] | 50 | 51
Cc1ccc(Nc2c(-c3ccc(F)c(C)c3)nc3n2CCN(C(=O)C(C)(C)N)C3)cc1 [Compound 518] | 4980 | 2890
Cc1ccc(Nc2c(-c3ccc(F)c(Cl)c3)nc3n2CCN(C(=O)CN)C3)cc1 [Compound 519] | 840 | 590
Cc1ccc(Nc2c(-c3ccc(Cl)c(F)c3)nc3n2CCN(C(=O)CN)C3)cc1 [Compound 520] | 160 | 158
Cc1ccc(Nc2c(-c3ccc(Cl)c(F)c3)nc3n2CCN(C(=O)C(C)(C)N)C3)cc1 [Compound 521] | 5000 | 3030
CC1(C)c2nc(-c3ccc(F)cc3)c(Nc3ccc(F)c(C#N)c3)n2CCN1C(=O)CN [Compound 522] | 1.7 | 2
CC1(C)NCCn2c1nc(-c1ccc(F)cc1)c2Nc1ccc(F)c(C(=O)O)c1 [Compound 523] | 13100 | 11600
CC1(C)NCCn2c1nc(-c1ccc(F)cc1)c2Nc1ccc(F)c(C#N)c1 [Compound 524] | 40 | 57
Cc1ccc(Nc2c(-c3ccc(F)cc3)nc3n2CCN(C(=O)CN)C3(C)C)cc1C#N [Compound 525] | 10 | 13
Cc1ccc(Nc2c(-c3ccc(F)cc3)nc3n2CCNC3(C)C)cc1C(=O)O [Compound 526] | 1120 | 974

SMILES | EC50 (3D7 P. falciparum strain) [nM] | EC50 (W2 strain) [nM]
Cc1ccc(Nc2c(-c3ccc(F)cc3)nc3n2CCNC3(C)C)cc1C#N [Compound 527] | 4 | 6
CC1(C)c2nc(-c3ccc(F)cc3)c(Nc3cccc(C(F)(F)F)c3)n2CCN1C(=O)C(F)(F)F [Compound 528] | 150 | 121
Cc1ccc(Nc2c(-c3ccc(F)cc3)nc3n2CCN(C(=O)C(C)(C)N)C3(C)C)cc1 [Compound 529, 2-amino-1-(2-(4-fluorophenyl)-8,8-dimethyl-3-(p-tolylamino)-5,6-dihydroimidazo[1,2-a]pyrazin-7(8H)-yl)-2-methylpropan-1-one] | 2 | 4
CC1(C)c2nc(-c3ccc(F)cc3)c(NC3CCCCC3)n2CCN1C(=O)CN [Compound 531] | 40 | 57
Cc1ccc(Nc2c(-c3ccc(F)cc3)nc3n2CCN(C(=O)CN)C3(C)C)cc1Cl [Compound 532] | 20 | 9
Cc1ccc(Nc2c(-c3ccc(F)cc3)nc3n2CCN(C(=O)CN)C3(C)C)cc1F [Compound 533] | 30 | 22
CC1(C)c2nc(-c3ccc(F)cc3)c(Nc3ccc(C#N)c(Cl)c3)n2CCN1C(=O)CN [Compound 534] | 40 | 19
Cc1ccc(Nc2c(-c3ccc(F)cc3)nc3n2CC(=O)NC3(C)C)cc1C#N [Compound 535] | 2720 | 2350
CN1CC(C)(C)n2c(nc(-c3ccc(F)cc3)c2Nc2ccc(F)cc2)C1(C)C [Compound 536] | 6400 | 5930
CC1(C)NC(=O)Cn2c1nc(-c1ccc(F)cc1)c2Nc1ccc(F)c(C#N)c1 [Compound 537] | 11900 | 8340
Cc1ccc(Nc2c(-c3ccc(F)cc3)nc3n2C(C)(C)C(=O)N(C)C3(C)C)cc1 [Compound 538] | 7670 | 8060
Cc1ccc(Nc2c(-c3ccc(F)cc3)nc3n2C(C)(C)CN(C)C3(C)C)cc1 [Compound 539] | 3060 | 3120
CC(C)(C)OC(=O)NCC(=O)N1CCn2cc(-c3ccc(F)cc3)nc2C1 [Compound 540, tert-butyl 2-(2-(4-fluorophenyl)-5,6-dihydroimidazo[1,2-a]pyrazin-7(8H)-yl)-2-oxoethylcarbamate] | 8420 | 9810
Cc1ccc(Nc2c(-c3ccc(F)cc3)nc3n2CCNC3(C)C)cc1F [Compound 541] | 10 | 10
CC1(C)NC(=O)Cn2c1nc(-c1ccc(F)cc1)c2Nc1cc(F)c(F)c(F)c1 [Compound 543] | 170 | 305
Cc1cc(Nc2c(-c3ccc(F)cc3)nc3n2CC(=O)NC3(C)C)ccc1F [Compound 544] | 20 | 37
COc1ccc(Nc2c(-c3ccc(F)cc3)nc3n2CC(=O)NC3(C)C)cn1 [Compound 545] | 3380 | 5620
Cc1ccc(Nc2c(-c3ccc(F)cc3)nc3n2CC(=O)NC3(C)C)cc1Cl [Compound 546] | 30 | 52
Cc1ccnc(Nc2c(-c3ccc(F)cc3)nc3n2CC(=O)NC3(C)C)c1 [Compound 547] | 1820 | 4660
CC1(C)NC(=O)Cn2c1nc(-c1ccc(F)cc1)c2Nc1ccc(C#N)c(Cl)c1 [Compound 548] | 2630 | 5550
